IC50 data for 18 molecules are collected here from ChEMBL document CHEMBL1129269, “1-aryl-4-[(1-tetralinyl)alkyl]piperazines: alkylamido and alkylamino derivatives. Synthesis, 5-HT1A receptor affinity, and selectivity. 3” (J Med Chem, 1996).

The target in test [1] is T1, 5-hydroxytryptamine receptor 1A (Rattus norvegicus, UniProt P19327).
T1 sequence (P19327 whole entry): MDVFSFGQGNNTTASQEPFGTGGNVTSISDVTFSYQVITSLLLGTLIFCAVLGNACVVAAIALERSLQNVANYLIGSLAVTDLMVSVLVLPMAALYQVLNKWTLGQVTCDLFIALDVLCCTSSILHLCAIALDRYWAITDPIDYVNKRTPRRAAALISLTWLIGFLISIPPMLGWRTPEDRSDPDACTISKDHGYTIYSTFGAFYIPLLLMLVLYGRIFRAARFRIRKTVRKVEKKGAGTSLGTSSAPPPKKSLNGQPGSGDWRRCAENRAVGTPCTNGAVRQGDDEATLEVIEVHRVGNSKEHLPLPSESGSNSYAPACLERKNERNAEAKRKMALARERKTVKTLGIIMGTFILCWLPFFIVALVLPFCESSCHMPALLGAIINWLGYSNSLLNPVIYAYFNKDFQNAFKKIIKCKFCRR
Briefly: Binding affinity against 5-hydroxytryptamine 1A receptor in rat hippocampus membranes using [3H]8-OH-DPAT as radioligand. It is filed as cell membranes, Membrane.

The target in test [2] is Serotonin 2 (5-HT2) receptor (Rattus norvegicus, UniProt P30994+P08909+P14842). Kind of test: Binding affinity against 5-hydroxytryptamine 2 receptor in rat brain using [3H]ketanserin as radioligand. It is filed as tissue-based.
The target of test [3] is T2, Adrenergic receptor alpha-2 (Rattus norvegicus, UniProt P22086+P19328+P22909).
T2 sequence (P22086 whole entry): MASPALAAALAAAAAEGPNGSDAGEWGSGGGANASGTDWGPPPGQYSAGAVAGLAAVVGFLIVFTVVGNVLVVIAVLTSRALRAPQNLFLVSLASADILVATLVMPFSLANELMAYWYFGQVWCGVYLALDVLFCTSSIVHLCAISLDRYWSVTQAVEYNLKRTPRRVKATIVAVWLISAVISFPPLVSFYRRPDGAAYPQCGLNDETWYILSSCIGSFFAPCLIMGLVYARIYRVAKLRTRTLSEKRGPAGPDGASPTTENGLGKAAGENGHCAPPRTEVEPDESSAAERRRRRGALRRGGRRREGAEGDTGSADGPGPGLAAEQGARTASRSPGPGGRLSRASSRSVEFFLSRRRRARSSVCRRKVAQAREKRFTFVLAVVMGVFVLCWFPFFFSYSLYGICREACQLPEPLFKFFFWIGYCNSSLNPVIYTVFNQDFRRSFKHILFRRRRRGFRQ
T2 sequence (P19328 whole entry): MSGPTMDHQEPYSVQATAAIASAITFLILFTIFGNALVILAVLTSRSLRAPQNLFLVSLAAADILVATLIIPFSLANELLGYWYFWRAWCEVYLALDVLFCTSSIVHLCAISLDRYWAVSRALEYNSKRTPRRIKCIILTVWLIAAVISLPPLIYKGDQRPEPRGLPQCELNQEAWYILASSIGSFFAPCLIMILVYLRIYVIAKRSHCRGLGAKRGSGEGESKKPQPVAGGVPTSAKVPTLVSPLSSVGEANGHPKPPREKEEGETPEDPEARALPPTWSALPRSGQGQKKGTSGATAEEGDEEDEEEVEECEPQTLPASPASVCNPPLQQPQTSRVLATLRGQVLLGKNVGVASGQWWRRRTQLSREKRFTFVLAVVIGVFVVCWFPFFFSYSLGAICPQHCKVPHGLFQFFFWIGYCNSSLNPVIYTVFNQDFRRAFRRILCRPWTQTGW
T2 sequence (P22909 whole entry): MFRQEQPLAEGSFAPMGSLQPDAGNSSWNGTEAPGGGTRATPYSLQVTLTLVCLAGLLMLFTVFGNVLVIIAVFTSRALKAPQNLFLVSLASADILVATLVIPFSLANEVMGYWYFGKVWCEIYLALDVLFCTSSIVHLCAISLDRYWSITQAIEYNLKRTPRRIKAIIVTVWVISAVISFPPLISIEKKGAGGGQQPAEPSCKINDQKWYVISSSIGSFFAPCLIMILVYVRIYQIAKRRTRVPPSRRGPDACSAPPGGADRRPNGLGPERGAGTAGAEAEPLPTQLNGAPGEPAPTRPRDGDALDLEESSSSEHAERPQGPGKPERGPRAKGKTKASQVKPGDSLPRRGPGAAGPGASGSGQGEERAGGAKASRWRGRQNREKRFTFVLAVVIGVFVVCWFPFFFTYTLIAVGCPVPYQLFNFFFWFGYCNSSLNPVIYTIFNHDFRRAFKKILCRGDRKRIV
Kind of test: Binding affinity against Alpha-2 adrenergic receptor in rat brain membrane using [3H]yohimbine as radioligand. It is filed as cell membranes.

Test [4] concerns the target T3, Adrenergic receptor alpha-1 (Rattus norvegicus, UniProt P15823+P23944+P43140).
T3 sequence (P15823 whole entry): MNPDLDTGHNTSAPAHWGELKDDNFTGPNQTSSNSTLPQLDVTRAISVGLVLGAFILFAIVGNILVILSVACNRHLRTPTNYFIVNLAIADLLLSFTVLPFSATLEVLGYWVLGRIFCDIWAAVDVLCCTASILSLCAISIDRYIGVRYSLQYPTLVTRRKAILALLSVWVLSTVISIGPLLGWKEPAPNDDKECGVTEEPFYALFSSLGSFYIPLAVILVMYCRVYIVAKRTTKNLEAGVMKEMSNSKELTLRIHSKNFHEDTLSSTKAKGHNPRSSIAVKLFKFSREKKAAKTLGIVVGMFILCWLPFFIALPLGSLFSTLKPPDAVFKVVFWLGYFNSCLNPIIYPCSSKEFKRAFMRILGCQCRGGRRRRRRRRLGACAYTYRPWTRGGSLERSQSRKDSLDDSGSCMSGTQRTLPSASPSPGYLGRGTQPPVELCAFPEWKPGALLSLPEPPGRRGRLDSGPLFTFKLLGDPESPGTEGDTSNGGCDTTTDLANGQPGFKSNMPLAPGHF
T3 sequence (P23944 whole entry): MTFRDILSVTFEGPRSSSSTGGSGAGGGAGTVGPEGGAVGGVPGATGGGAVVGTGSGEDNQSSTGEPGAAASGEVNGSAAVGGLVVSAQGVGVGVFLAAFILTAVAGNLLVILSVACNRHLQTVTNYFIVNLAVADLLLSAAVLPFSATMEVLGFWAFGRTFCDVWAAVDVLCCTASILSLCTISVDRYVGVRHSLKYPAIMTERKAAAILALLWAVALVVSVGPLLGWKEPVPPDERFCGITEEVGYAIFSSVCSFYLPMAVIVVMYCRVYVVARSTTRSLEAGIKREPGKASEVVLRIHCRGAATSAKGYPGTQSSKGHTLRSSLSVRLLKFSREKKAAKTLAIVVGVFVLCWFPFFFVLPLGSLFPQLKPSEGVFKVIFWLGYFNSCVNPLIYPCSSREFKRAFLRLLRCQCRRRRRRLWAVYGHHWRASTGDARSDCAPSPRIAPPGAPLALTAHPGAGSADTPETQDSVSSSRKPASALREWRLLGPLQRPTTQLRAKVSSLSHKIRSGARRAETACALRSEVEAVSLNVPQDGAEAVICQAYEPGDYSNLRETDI
T3 sequence (P43140 whole entry): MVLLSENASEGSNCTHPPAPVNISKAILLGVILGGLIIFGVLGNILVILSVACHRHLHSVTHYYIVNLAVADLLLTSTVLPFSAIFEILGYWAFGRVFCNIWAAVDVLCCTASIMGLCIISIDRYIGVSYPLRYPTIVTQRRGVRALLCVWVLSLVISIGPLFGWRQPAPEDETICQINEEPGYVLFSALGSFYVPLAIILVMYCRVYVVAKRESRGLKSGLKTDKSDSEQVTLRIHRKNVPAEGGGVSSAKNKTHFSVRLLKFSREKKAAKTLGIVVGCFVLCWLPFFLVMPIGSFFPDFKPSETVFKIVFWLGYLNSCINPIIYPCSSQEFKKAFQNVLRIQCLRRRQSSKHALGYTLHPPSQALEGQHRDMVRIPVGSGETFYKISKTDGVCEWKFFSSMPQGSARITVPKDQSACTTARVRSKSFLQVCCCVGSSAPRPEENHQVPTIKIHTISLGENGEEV
Briefly: Binding affinity against Alpha-1 adrenergic receptor in rat brain membrane using [3H]prazosin as radioligand. It is filed as cell membranes.

Test [5] has as its target D(2) dopamine receptor (Rattus norvegicus, UniProt P61169). Kind of test: Binding affinity against Dopamine receptor D2 in rat striatal membrane using [3H]spiroperidol as radioligand. Format: cell membranes, Striatum.
Test [6] has as its target T1, 5-hydroxytryptamine receptor 1A. Briefly: Binding affinity against serotonin 5-hydroxytryptamine 1A receptor in rat hippocampus membrane using [3H]8-OH-DPAT as radioligand. It is filed as cell membranes.

Sequence of D(2) dopamine receptor (P61169 whole entry): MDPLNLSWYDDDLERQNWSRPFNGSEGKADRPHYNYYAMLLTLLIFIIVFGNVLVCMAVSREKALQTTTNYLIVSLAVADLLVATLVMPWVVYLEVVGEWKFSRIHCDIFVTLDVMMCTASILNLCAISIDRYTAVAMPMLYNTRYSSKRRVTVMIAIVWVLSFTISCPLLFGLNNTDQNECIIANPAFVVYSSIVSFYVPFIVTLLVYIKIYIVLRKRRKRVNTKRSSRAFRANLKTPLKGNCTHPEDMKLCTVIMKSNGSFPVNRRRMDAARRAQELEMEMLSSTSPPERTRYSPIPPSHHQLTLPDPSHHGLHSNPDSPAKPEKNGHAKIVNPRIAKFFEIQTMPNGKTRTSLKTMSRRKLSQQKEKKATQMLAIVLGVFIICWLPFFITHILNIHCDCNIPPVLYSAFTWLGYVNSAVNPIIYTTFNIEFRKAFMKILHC

`COc1ccccc1N1CCN(CCCNC2CCCc3c(OC)cccc32)CC1` (stereo not given): the IC50 is 10 nM in test [1]; 3300 nM in test [2]; 458 nM in test [3]; 881 nM in test [4]; 1060 nM in test [5].

`COc1cccc2c1CCCC2CNCCN1CCN(c2ccccc2)CC1` (stereo not given): the IC50 in test [1] was 116 nM; in test [2], 1900 nM; in test [3], 1420 nM; in test [4] it was 1150 nM; in test [5], 1100 nM.

Turning to `COc1cccc2c1CCCC2NCCN1CCN(c2ccccn2)CC1` (stereo not given), the IC50 in test [2] came to 9140 nM; in test [3] it was 95 nM; in test [4] it was 725 nM; in test [5] it was 1850 nM.

Turning to `COc1cccc2c1CCCC2NC(=O)CCN1CCN(c2ccccc2)CC1` (stereo not given), the IC50 in test [1] was found to be 311 nM; in test [2], 1200 nM; in test [3], 2680 nM; in test [4] it was 313 nM; in test [5], 2970 nM.

Regarding `COc1cccc2c1CCCC2C(=O)N(C)CCCN1CCN(c2ccccc2)CC1` (stereo not given), the IC50 in test [1] amounted to 134 nM; in test [2], 134 nM; in test [3], 144 nM; in test [4], 159 nM; in test [5] it was 594 nM.

In the case of `COc1cccc2c1CCCC2NC(=O)CN1CCN(c2ccccc2)CC1` (stereo not given), the IC50 was above 10000 nM in test [2], above 10000 nM in test [3], 5980 nM in test [4] and above 10000 nM in test [5].

As to `COc1ccccc1N1CCN(CCCNC(=O)C2CCCc3c(OC)cccc32)CC1` (stereo not given), the IC50 in test [6] turned out to be 16 nM; in test [2] it was 2040 nM; in test [3] it was 564 nM; in test [4], 84 nM; in test [5] it was 116 nM.

With `COc1ccccc1N1CCN(CCNC(=O)C2CCCc3c(OC)cccc32)CC1` (stereo not given), the IC50 in test [6] turned out to be 35 nM; in test [2] it was 1710 nM; in test [3], 1380 nM; in test [5] it was 448 nM.

As for `COc1ccccc1N1CCN(CCCC2CCCc3c(OC)cccc32)CC1` (stereo not given), the IC50 in test [6] worked out at 0.77 nM; in test [2], 330 nM; in test [3], 17 nM; in test [4], 6.5 nM.

Turning to `COc1ccccc1N1CCN(CCC(=O)NC2CCCc3c(OC)cccc32)CC1` (stereo not given), the IC50 in test [2] was 841 nM; in test [3], 1250 nM; in test [4] it was 153 nM; in test [5] it was 761 nM.

`COc1cccc2c1CCCC2C(=O)NCCN1CCN(c2ccccc2)CC1` (stereo not given): the IC50 was 416 nM in test [6]; 1560 nM in test [2]; 1850 nM in test [3]; 427 nM in test [4]; 4040 nM in test [5].

As for `COc1ccccc1N1CCN(CCN(C)C(=O)C2CCCc3c(OC)cccc32)CC1` (stereo not given), the IC50 in test [1] was determined as 307 nM; in test [2], 1070 nM; in test [3], 183 nM; in test [4], 297 nM; in test [5], 332 nM.

Turning to `COc1cccc2c1CCCC2NC(=O)CCN1CCN(c2ccccn2)CC1` (stereo not given), the IC50 came out at 135 nM in test [1]; 726 nM in test [2]; 1330 nM in test [3]; 534 nM in test [4]; 1900 nM in test [5].

As to `COc1cccc2c1CCCC2C(=O)NCCCN1CCN(c2ccccn2)CC1` (stereo not given), the half-inhibitory concentration (IC50) is 95 nM in test [1]; 428 nM in test [2]; 746 nM in test [3]; 327 nM in test [4]; 819 nM in test [5].

Take `COc1cccc2c1CCCC2NCCCN1CCN(c2ccccc2)CC1` (stereo not given): the IC50 in test [1] stood at 53 nM; in test [2] it was 2690 nM; in test [3] it was 788 nM; in test [4], 626 nM; in test [5], 2160 nM.

For the molecule `COc1cccc2c1CCCC2NCCN1CCN(c2ccccc2)CC1` (stereo not given), the IC50 amounted to 92 nM in test [1]; 2720 nM in test [2]; 310 nM in test [3]; 790 nM in test [4]; 1200 nM in test [5].

Take `COc1cccc2c1CCCC2C(=O)N(C)CCN1CCN(c2ccccc2)CC1` (stereo not given): the IC50 was found to be 271 nM in test [1]; 848 nM in test [2]; 250 nM in test [3]; 510 nM in test [4]; 882 nM in test [5].

Take `COc1ccccc1N1CCN(CCN(C)C2CCCc3c(OC)cccc32)CC1` (stereo not given): the IC50 amounted to 8.7 nM in test [1]; 1740 nM in test [2]; 112 nM in test [3]; 887 nM in test [4]; 73 nM in test [5].

The term IC50 denotes the concentration at which inhibition is half-maximal. Low readings indicate higher potency, high ones lower potency.
